Results as given in ChEMBL document CHEMBL5260842 (J Med Chem, 2019).

How the values were obtained:
[1] = target: T1, von Hippel-Lindau disease tumor suppressor/Androgen receptor (Homo sapiens, UniProt P10275+P40337); assay: Protac activity at VHL/AR in AR-positive human LNCaP cells assessed as induction of androgen receptor degradation at 0.01 uM incubated for 6 hrs by Western blot analysis (reference value: 0%); format: cell-based
[2] = target: T1, von Hippel-Lindau disease tumor suppressor/Androgen receptor; assay: Protac activity at VHL/AR in AR-positive human LNCaP cells assessed as induction of androgen receptor degradation at 0.1 uM incubated for 6 hrs by Western blot analysis (reference value: 0%); format: cell-based
LNCaP = assay: Cytotoxicity against AR-positive human LNCaP cells assessed as inhibition of cell growth incubated for 7 days in presence of AR agonist, R1881 in charcoal stripped medium by WST-8 assay; format: functional, cell-based; settings: 168 h
VCaP = assay: Cytotoxicity against AR-positive human VCaP cells assessed as inhibition of cell growth incubated for 7 days in presence of AR agonist, R1881 in charcoal stripped medium by WST-8 assay; format: functional, cell-based; settings: 168 h
CWR22R = assay: Cytotoxicity against AR-positive human 22Rv1 cells assessed as inhibition of cell growth incubated for 7 days in regular culture medium by WST-8 assay; format: functional, cell-based; settings: 22Rv1, 168 h

T1 sequence (P10275 whole entry, looked up): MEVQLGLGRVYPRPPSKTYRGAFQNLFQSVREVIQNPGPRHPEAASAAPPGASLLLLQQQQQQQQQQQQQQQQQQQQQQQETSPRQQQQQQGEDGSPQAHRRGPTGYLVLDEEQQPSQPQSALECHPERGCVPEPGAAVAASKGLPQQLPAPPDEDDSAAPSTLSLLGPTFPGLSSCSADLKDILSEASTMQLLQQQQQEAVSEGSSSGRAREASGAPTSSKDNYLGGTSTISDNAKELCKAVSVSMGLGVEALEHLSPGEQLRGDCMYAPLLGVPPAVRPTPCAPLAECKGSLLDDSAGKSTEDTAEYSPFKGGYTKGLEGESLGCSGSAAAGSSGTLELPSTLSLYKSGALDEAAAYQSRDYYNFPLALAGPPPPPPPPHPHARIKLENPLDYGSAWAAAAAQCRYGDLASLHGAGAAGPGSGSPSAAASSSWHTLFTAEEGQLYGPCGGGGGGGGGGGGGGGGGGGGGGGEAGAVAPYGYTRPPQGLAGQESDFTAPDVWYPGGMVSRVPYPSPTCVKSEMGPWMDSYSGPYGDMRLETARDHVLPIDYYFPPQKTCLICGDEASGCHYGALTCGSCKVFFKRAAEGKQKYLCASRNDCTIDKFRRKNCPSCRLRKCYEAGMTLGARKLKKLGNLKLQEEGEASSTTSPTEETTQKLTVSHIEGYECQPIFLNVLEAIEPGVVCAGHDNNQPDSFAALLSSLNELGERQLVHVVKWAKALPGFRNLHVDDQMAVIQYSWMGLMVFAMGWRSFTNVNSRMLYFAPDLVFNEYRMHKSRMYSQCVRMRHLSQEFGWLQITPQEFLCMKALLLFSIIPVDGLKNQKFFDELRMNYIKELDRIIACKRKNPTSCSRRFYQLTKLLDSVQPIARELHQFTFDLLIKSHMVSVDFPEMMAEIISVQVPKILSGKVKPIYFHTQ
T1 sequence (P40337 whole entry, looked up): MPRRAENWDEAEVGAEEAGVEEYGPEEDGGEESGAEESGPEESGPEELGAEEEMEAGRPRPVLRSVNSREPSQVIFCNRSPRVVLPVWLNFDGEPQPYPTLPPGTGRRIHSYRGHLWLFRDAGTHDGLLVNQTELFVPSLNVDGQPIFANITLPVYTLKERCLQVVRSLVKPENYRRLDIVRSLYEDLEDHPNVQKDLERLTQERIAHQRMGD

Compound	Activity [1] [%]	Activity [2] [%]	further results
Cc1ncsc1-c1ccc(CNC(=O)[C@@H]2C[C@@H](O)CN2C(=O)[C@@H](NC(=O)CCNC(=O)c2ccc(N3C(=S)N(c4ccc(C#N)c(C(F)(F)F)c4)C(=O)C3(C)C)cc2F)C(C)(C)C)cc1		26	
Cc1ncsc1-c1ccc(CNC(=O)[C@@H]2C[C@@H](O)CN2C(=O)[C@@H](NC(=O)CCCCCCCCNC(=O)c2ccc(N3C(=S)N(c4ccc(C#N)c(C(F)(F)F)c4)C(=O)C3(C)C)cc2F)C(C)(C)C)cc1	15	66	
Cc1ncsc1-c1ccc(CNC(=O)[C@@H]2C[C@@H](O)CN2C(=O)[C@@H](NC(=O)CCOCCOCCNC(=O)c2ccc(N3C(=S)N(c4ccc(C#N)c(C(F)(F)F)c4)C(=O)C3(C)C)cc2F)C(C)(C)C)cc1		32	
Cc1ncsc1-c1ccc(CNC(=O)[C@@H]2C[C@@H](O)CN2C(=O)[C@@H](NC(=O)CCCNC(=O)c2ccc(N3C(=S)N(c4ccc(C#N)c(C(F)(F)F)c4)C(=O)C3(C)C)cc2F)C(C)(C)C)cc1		15	
Cc1cc([C@H](C(=O)N2C[C@H](O)C[C@H]2C(=O)N[C@@H](CC(=O)NCCCCCCCCCNC(=O)c2ccc(N3C(=S)N(c4ccc(C#N)c(C(F)(F)F)c4)C(=O)C3(C)C)cc2F)c2ccc(-c3sncc3C)cc2)C(C)C)on1	11	50	
Cc1ncsc1-c1ccc(CNC(=O)[C@@H]2C[C@@H](O)CN2C(=O)[C@@H](NC(=O)CCCCCCCCCCNC(=O)c2ccc(N3C(=S)N(c4ccc(C#N)c(C(F)(F)F)c4)C(=O)C3(C)C)cc2F)C(C)(C)C)cc1	11	48	
Cc1ncsc1-c1ccc(CNC(=O)[C@@H]2C[C@@H](O)CN2C(=O)[C@@H](NC(=O)CCCCCCCCCCCNC(=O)c2ccc(N3C(=S)N(c4ccc(C#N)c(C(F)(F)F)c4)C(=O)C3(C)C)cc2F)C(C)(C)C)cc1		30	
CNC(=O)c1ccc(N2C(=S)N(c3ccc(C#N)c(C(F)(F)F)c3)C(=O)C2(C)C)cc1F [ENZALUTAMIDE]			IC50 (LNCaP): 0.025 µM; IC50 (VCaP): 0.0874 µM
Cc1ncsc1-c1ccc(CNC(=O)[C@@H]2C[C@@H](O)CN2C(=O)[C@@H](NC(=O)CCCCNC(=O)c2ccc(N3C(=S)N(c4ccc(C#N)c(C(F)(F)F)c4)C(=O)C3(C)C)cc2F)C(C)(C)C)cc1		16	
Cc1ncsc1-c1ccc(CNC(=O)[C@@H]2C[C@@H](O)CN2C(=O)[C@@H](NC(=O)CCCCCCNC(=O)c2ccc(N3C(=S)N(c4ccc(C#N)c(C(F)(F)F)c4)C(=O)C3(C)C)cc2F)C(C)(C)C)cc1		54	
Cc1ncsc1-c1ccc(CNC(=O)[C@@H]2C[C@@H](O)CN2C(=O)[C@@H](NC(=O)CCCCCCCNC(=O)c2ccc(N3C(=S)N(c4ccc(C#N)c(C(F)(F)F)c4)C(=O)C3(C)C)cc2F)C(C)(C)C)cc1	8	29	
CC1(C)[C@H](NC(=O)c2cnn(CCO)c2)C(C)(C)[C@H]1Oc1ccc(C#N)c(Cl)c1			IC50 (LNCaP): 0.048 µM; IC50 (VCaP): 0.148 µM; IC50 (CWR22R): > 10 µM
Cc1ncsc1-c1ccc(CNC(=O)[C@@H]2C[C@@H](O)CN2C(=O)[C@@H](NC(=O)CCCCCCCCCNC(=O)c2ccc(N3C(=S)N(c4ccc(C#N)c(C(F)(F)F)c4)C(=O)C3(C)C)cc2F)C(C)(C)C)cc1	10	48	
Cc1ncsc1-c1ccc(CNC(=O)[C@@H]2C[C@@H](O)CN2C(=O)[C@@H](NC(=O)CCCCCNC(=O)c2ccc(N3C(=S)N(c4ccc(C#N)c(C(F)(F)F)c4)C(=O)C3(C)C)cc2F)C(C)(C)C)cc1		11	
Cc1ncsc1-c1ccc(CNC(=O)[C@@H]2C[C@@H](O)CN2C(=O)[C@@H](NC(=O)CCCCCCc2ccc(C#Cc3ccc(N4C(=S)N(c5ccc(C#N)c(C(F)(F)F)c5)C(=O)C4(C)C)cc3)cn2)C(C)(C)C)cc1	30	63	

Further lines, with some results ahead:

Activity [1] [%]	Activity [2] [%]	Compound	further results
27	75	Cc1cc([C@H](C(=O)N2C[C@H](O)C[C@H]2C(=O)N[C@@H](CC(=O)NCCCN2CCN(c3ccc(C#Cc4ccc(N5C(=S)N(c6ccc(C#N)c(C(F)(F)F)c6)C(=O)C5(C)C)cc4)cn3)CC2)c2ccc(-c3sncc3C)cc2)C(C)C)on1	
76	98	Cc1cc([C@H](C(=O)N2C[C@H](O)C[C@H]2C(=O)N[C@@H](CC(=O)N2CCC(N3CCC(C#Cc4ccc(C(=O)N[C@H]5C(C)(C)[C@H](Oc6ccc(C#N)c(Cl)c6)C5(C)C)cc4)CC3)CC2)c2ccc(-c3scnc3C)cc2)C(C)C)on1	
37	61	Cc1ncsc1-c1ccc([C@H](C)NC(=O)[C@@H]2C[C@@H](O)CN2C(=O)[C@@H](NC(=O)CCCN2CCN(c3ccc(C#Cc4ccc(N5C(=S)N(c6ccc(C#N)c(C(F)(F)F)c6)C(=O)C5(C)C)cc4)cn3)CC2)C(C)(C)C)cc1	
34	51	Cc1ncsc1-c1ccc([C@H](C)NC(=O)[C@@H]2C[C@@H](O)CN2C(=O)[C@@H](NC(=O)CCN2CCN(c3ccc(C#Cc4ccc(N5C(=S)N(c6ccc(C#N)c(C(F)(F)F)c6)C(=O)C5(C)C)cc4)cn3)CC2)C(C)(C)C)cc1	
	0	Cc1ncsc1-c1ccc([C@H](C)NC(=O)[C@@H]2C[C@@H](O)CN2C(=O)[C@@H](NC(=O)N2CCN(c3ccc(C#Cc4ccc(N5C(=S)N(c6ccc(C#N)c(C(F)(F)F)c6)C(=O)C5(C)C)cc4)cn3)CC2)C(C)(C)C)cc1	
	50	Cc1ncsc1-c1ccc(CNC(=O)[C@@H]2C[C@@H](O)CN2C(=O)[C@@H](NC(=O)CCCN2CCN(c3ccc(C#Cc4ccc(N5C(=S)N(c6ccc(C#N)c(C(F)(F)F)c6)C(=O)C5(C)C)cc4)cn3)CC2)C(C)(C)C)cc1	
	3	Cc1ncsc1-c1ccc([C@H](C)NC(=O)[C@@H]2C[C@@H](O)CN2C(=O)[C@@H](NC(=O)CN2CCN(c3ccc(C#Cc4ccc(N5C(=S)N(c6ccc(C#N)c(C(F)(F)F)c6)C(=O)C5(C)C)cc4)cn3)CC2)C(C)(C)C)cc1	
28	48	Cc1ncsc1-c1ccc([C@H](C)NC(=O)[C@@H]2C[C@@H](O)CN2C(=O)[C@@H](NC(=O)CCCCN2CCN(c3ccc(C#Cc4ccc(N5C(=S)N(c6ccc(C#N)c(C(F)(F)F)c6)C(=O)C5(C)C)cc4)cn3)CC2)C(C)(C)C)cc1	
22	72	Cc1cc([C@H](C(=O)N2C[C@H](O)C[C@H]2C(=O)N[C@@H](CC(=O)N2CCN(c3ccc(C#Cc4ccc(N5C(=S)N(c6ccc(C#N)c(C(F)(F)F)c6)C(=O)C5(C)C)cc4)cn3)CC2)c2ccc(-c3scnc3C)cc2)C(C)C)on1	
	< 5	Cc1ncsc1-c1ccc([C@@H](CC(=O)N2CCC(N3CCC(C#Cc4ccc(C(=O)N[C@H]5C(C)(C)[C@H](Oc6ccc(C#N)c(Cl)c6)C5(C)C)cc4)CC3)CC2)NC(=O)[C@@H]2C[C@@H](O)CN2C(=O)[C@@H](NC(=O)C2(F)CC2)C(C)(C)C)cc1	
	18	Cc1cc([C@H](C(=O)N2C[C@H](O)C[C@H]2C(=O)N[C@@H](CC(=O)N2CCC(N3CCC(C#Cc4ccc(S(=O)(=O)CC(C)(O)C(=O)Nc5ccc(C#N)c(C(F)(F)F)c5)cc4)CC3)CC2)c2ccc(-c3scnc3C)cc2)C(C)C)on1 (stereo partly drawn)	
38	80	Cc1cc([C@H](C(=O)N2C[C@H](O)C[C@H]2C(=O)N[C@@H](CC(=O)N2CCC(N3CCC(C#Cc4ccc(N5C(=S)N(c6cnc(C#N)c(C(F)(F)F)c6)C(=O)C56CCC6)cc4)CC3)CC2)c2ccc(-c3scnc3C)cc2)C(C)C)on1	
	< 5	Cc1ncsc1-c1ccc([C@H](CC(=O)N2CCC(N3CCC(C#Cc4ccc(C(=O)N[C@H]5C(C)(C)[C@H](Oc6ccc(C#N)c(Cl)c6)C5(C)C)cc4)CC3)CC2)NC(=O)[C@@H]2C[C@@H](O)CN2C(=O)[C@H](NC(=O)C2(F)CC2)C(C)(C)C)cc1	
	65	Cc1cc([C@H](C(=O)N2C[C@H](O)C[C@H]2C(=O)N[C@@H](CC(=O)N2CCC(N3CCC(C#Cc4ccc(Cc5c(C)nn(-c6ccc(C#N)c(Cl)c6)c5C)cc4)CC3)CC2)c2ccc(-c3scnc3C)cc2)C(C)C)on1	
39	77	CC(=O)N[C@H](C(=O)N1C[C@H](O)C[C@H]1C(=O)N[C@@H](CC(=O)N1CCC(N2CCC(C#Cc3ccc(C(=O)N[C@H]4C(C)(C)[C@H](Oc5ccc(C#N)c(Cl)c5)C4(C)C)cc3)CC2)CC1)c1ccc(-c2scnc2C)cc1)C(C)(C)C	
43	91	Cc1cc([C@H](C(=O)N2C[C@H](O)C[C@H]2C(=O)N[C@@H](CC(=O)NCCCCCCCCCNC(=O)c2ccc(C(=O)N[C@H]3C(C)(C)[C@H](Oc4ccc(C#N)c(Cl)c4)C3(C)C)cc2)c2ccc(-c3scnc3C)cc2)C(C)C)on1	
76	99	Cc1ncsc1-c1ccc([C@H](CC(=O)N2CCC(N3CCC(C#Cc4ccc(C(=O)N[C@H]5C(C)(C)[C@H](Oc6ccc(C#N)c(Cl)c6)C5(C)C)cc4)CC3)CC2)NC(=O)[C@@H]2C[C@@H](O)CN2C(=O)[C@@H](NC(=O)C2(C#N)CC2)C(C)(C)C)cc1	
20	81	Cc1cc([C@H](C(=O)N2C[C@H](O)C[C@H]2C(=O)N[C@@H](CC(=O)N2CCC(N3CCC(C#Cc4ccc(N5C(=S)N(c6ccc(C#N)c(C(F)(F)F)c6)C(=O)C5(C)C)cc4)CC3)CC2)c2ccc(-c3scnc3C)cc2)C(C)C)on1	
